Experimental data: PMC10165273, “Itch receptor MRGPRX4 interacts with the receptor activity–modifying proteins” (The Journal of Biological Chemistry, 2023)
Several values for one entry are separate records, joined by “and”; a condition that tells them apart may be missing. Equal entries are not always repeated. Where two headings read alike, the source gives them in different places.

Experiments:
MRGPRX4 + RAMP3 = biological target: T1, MRGPRX4 + RAMP3 (Homo sapiens, UniProt Q96LA9); assay: IP1 accumulation, MRGPRX4 coexpressed with RAMP3; assay type: cell-based; set-up: key: % IP1; unstimulated mock = 0%, fully stimulated MRGPRX4 = 100%; conditions: Figure 4c-f; agonist 100µM; X4:ramp3 1:2; MRGPRX4 = 100
T1 construct: expressed in transfected cells; host or cells: HEK293T

MRGPRX4 + RAMP1 = biological target: T2, MRGPRX4 + RAMP1 (Homo sapiens, UniProt Q96LA9); assay: IP1 accumulation, MRGPRX4 coexpressed with RAMP1; assay type: cell-based; set-up: potency: unit not given here; conditions: for activation at 100 µM / activation at 20 µM / activation at 4 µM / activation at 0.8 µM / activation at […] / activation at 0.032 µM: 2 h; for Emax: Figure 4a bottom, MRGPRX4 alone = 100, read-out: efficacy
T2 construct: expressed in transfected cells; host or cells: HEK293T
Procedure: HEK293T cells were transfected with 1 pg/cell of MRGPRX4 DNA, and the amount of DNA was kept constant at 2 pg/cell with pcDNA3.1(+) empty vector, unless otherwise specified. Twenty four hours after transfection, IP1 assay was performed as previously described ([51]). When applicable, cells were treated with 1 μM YM254890 (YM) or different concentrations of U73122 for 1 h prior to addition of agonist or buffer. After incubation for 2 h, HTRF reagents and IP1 calibration standards were added and incubated for 2 h in the dark at room temperature. Time-resolved fluorescence signals were read on the BioTek Synergy NEO-TRF Hybrid multi-mode reader (BioTek Instruments). All data were carried out in three independent experiments with three technical replicate each.
For a homogenous transfection of MRGPRX4, a master mix of MRGPRX4 DNA was made prior to addition of the RAMP DNA. […]
Data reduction, standard calibration, and transformation of HTRF data were performed as previously described ([51]). Normalized IP1 values were calculated relative to the unstimulated mock-transfected cells (set to 0%) and fully stimulated MRGPRX4 (alone if applicable) (set to 100%).

T2 sequence (Q96LA9 whole entry): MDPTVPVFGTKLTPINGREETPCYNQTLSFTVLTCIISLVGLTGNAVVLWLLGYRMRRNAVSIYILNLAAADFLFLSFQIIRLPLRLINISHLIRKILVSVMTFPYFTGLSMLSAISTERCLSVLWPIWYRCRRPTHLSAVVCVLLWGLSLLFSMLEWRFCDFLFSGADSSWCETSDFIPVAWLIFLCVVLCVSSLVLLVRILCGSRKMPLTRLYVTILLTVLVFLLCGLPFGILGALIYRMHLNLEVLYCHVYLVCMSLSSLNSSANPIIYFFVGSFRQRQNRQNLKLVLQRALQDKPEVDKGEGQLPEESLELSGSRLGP
T1 sequence (Q96LA9 whole entry): as above

Structure (SMILES): CC(C)[C@H]1CC[C@H](C(=O)N[C@H](Cc2ccccc2)C(=O)O)CC1 [Nateglinide]
- response to agonist, X4:ramp3.I:2 (MRGPRX4 + RAMP3): 54.9628 and 57.8528
- activation at 100 µM (MRGPRX4 + RAMP1; log [nateglinide] (M) -4, MRGPRX4+RAMP10.5pg 1:0.5, Supplementary Figure 5d, read-out: IP1 accumulation (normalized)): 99.2%
- activation at 20 µM (MRGPRX4 + RAMP1; log [nateglinide] (M) -4.69897, MRGPRX4+RAMP10.5pg 1:0.5, Supplementary Figure 5d, read-out: IP1 accumulation (normalized)): 78.1%
- activation at 20 µM (MRGPRX4 + RAMP1; log [nateglinide] (M) -4.69897, MRGPRX4+RAMP1 0.75pg 1:0.75, Supplementary Figure 5d, read-out: IP1 accumulation (normalized)): 84.8%
- activation at 20 µM (MRGPRX4 + RAMP1; log [nateglinide] (M) -4.69897, MRGPRX4+RAMP1 1pg 1:1, Supplementary Figure 5d, 5g, read-out: IP1 accumulation (normalized)): 72.1%
- activation at 4 µM (MRGPRX4 + RAMP1; log [nateglinide] (M) -5.39794, MRGPRX4+RAMP10.5pg 1:0.5, Supplementary Figure 5d, read-out: IP1 accumulation (normalized)): 49.7%
- activation at 4 µM (MRGPRX4 + RAMP1; log [nateglinide] (M) -5.39794, MRGPRX4+RAMP1 0.75pg 1:0.75, Supplementary Figure 5d, read-out: IP1 accumulation (normalized)): 44.1%
- activation at 4 µM (MRGPRX4 + RAMP1; log [nateglinide] (M) -5.39794, MRGPRX4+RAMP1 1pg 1:1, Supplementary Figure 5d, 5g, read-out: IP1 accumulation (normalized)): 39.2%
- activation at 0.8 µM (MRGPRX4 + RAMP1; log [nateglinide] (M) -6.09691, MRGPRX4+RAMP10.5pg 1:0.5, Supplementary Figure 5d, read-out: IP1 accumulation (normalized)): 18.6%
- activation at 0.8 µM (MRGPRX4 + RAMP1; log [nateglinide] (M) -6.09691, MRGPRX4+RAMP1 0.75pg 1:0.75, Supplementary Figure 5d, read-out: IP1 accumulation (normalized)): 14.6%
- activation at 0.8 µM (MRGPRX4 + RAMP1; log [nateglinide] (M) -6.09691, MRGPRX4+RAMP1 1pg 1:1, Supplementary Figure 5d, 5g, read-out: IP1 accumulation (normalized)): 12.9%
- activation at […] (MRGPRX4 + RAMP1; log [nateglinide] (M) -6.79588, MRGPRX4+RAMP10.5pg 1:0.5, Supplementary Figure 5d, read-out: IP1 accumulation (normalized)): 8.57%
- activation at […] (MRGPRX4 + RAMP1; log [nateglinide] (M) -6.79588, MRGPRX4+RAMP1 0.75pg 1:0.75, Supplementary Figure 5d, read-out: IP1 accumulation (normalized)): 11.2%
- activation at 0.032 µM (MRGPRX4 + RAMP1; log [nateglinide] (M) -7.49485, MRGPRX4+RAMP10.5pg 1:0.5, Supplementary Figure 5d, read-out: IP1 accumulation (normalized)): 7.92%
- activation at 0.032 µM (MRGPRX4 + RAMP1; log [nateglinide] (M) -7.49485, MRGPRX4+RAMP1 0.75pg 1:0.75, Supplementary Figure 5d, read-out: IP1 accumulation (normalized)): 8.7%
- activation at 0.032 µM (MRGPRX4 + RAMP1; log [nateglinide] (M) -7.49485, MRGPRX4+RAMP1 1pg 1:1, Supplementary Figure 5d, 5g, read-out: IP1 accumulation (normalized)): 7.65%
- activation at 100 µM (MRGPRX4 + RAMP1; ratio MRGPRX4:RAMP1 1:0.25, log [Nateglinide] (M) -4, Fig S3a, read-out: IP1 accumulation): 102%
- activation at 20 µM (MRGPRX4 + RAMP1; ratio MRGPRX4:RAMP1 1:0.25, log [Nateglinide] (M) -4.69897, Fig S3a, read-out: IP1 accumulation): 76.7%
- activation at 4 µM (MRGPRX4 + RAMP1; ratio MRGPRX4:RAMP1 1:0.25, log [Nateglinide] (M) -5.39794, Fig S3a, read-out: IP1 accumulation): 42.2%
- activation at 0.8 µM (MRGPRX4 + RAMP1; ratio MRGPRX4:RAMP1 1:0.25, log [Nateglinide] (M) -6.09691, Fig S3a, read-out: IP1 accumulation): 29.4%
- activation at […] (MRGPRX4 + RAMP1; ratio MRGPRX4:RAMP1 1:0.25, log [Nateglinide] (M) -6.79588, Fig S3a, read-out: IP1 accumulation): 26.1%
- activation at 0.032 µM (MRGPRX4 + RAMP1; ratio MRGPRX4:RAMP1 1:0.25, log [Nateglinide] (M) -7.49485, Fig S3a, read-out: IP1 accumulation): 24%
- activation at 100 µM (MRGPRX4 + RAMP1; ratio MRGPRX4:RAMP1 1:1, log [Nateglinide] (M) -4, Fig S3a, read-out: IP1 accumulation): 114%
- activation at 20 µM (MRGPRX4 + RAMP1; ratio MRGPRX4:RAMP1 1:1, log [Nateglinide] (M) -4.69897, Fig S3a, read-out: IP1 accumulation): 87.9%
- activation at 4 µM (MRGPRX4 + RAMP1; ratio MRGPRX4:RAMP1 1:1, log [Nateglinide] (M) -5.39794, Fig S3a, read-out: IP1 accumulation): 43.7%
- activation at 0.8 µM (MRGPRX4 + RAMP1; ratio MRGPRX4:RAMP1 1:1, log [Nateglinide] (M) -6.09691, Fig S3a, read-out: IP1 accumulation): 22.8%
- activation at […] (MRGPRX4 + RAMP1; ratio MRGPRX4:RAMP1 1:1, log [Nateglinide] (M) -6.79588, Fig S3a, read-out: IP1 accumulation): 17.6%
- activation at 0.032 µM (MRGPRX4 + RAMP1; ratio MRGPRX4:RAMP1 1:1, log [Nateglinide] (M) -7.49485, Fig S3a, read-out: IP1 accumulation): 16%
- activation at 100 µM (MRGPRX4 + RAMP1; ratio MRGPRX4:RAMP1 1:2, log [Nateglinide] (M) -4, Fig S3a, read-out: IP1 accumulation): 117%
- activation at 20 µM (MRGPRX4 + RAMP1; ratio MRGPRX4:RAMP1 1:2, log [Nateglinide] (M) -4.69897, Fig S3a, read-out: IP1 accumulation): 93.3%
- activation at 4 µM (MRGPRX4 + RAMP1; ratio MRGPRX4:RAMP1 1:2, log [Nateglinide] (M) -5.39794, Fig S3a, read-out: IP1 accumulation): 44.8%
- activation at 0.8 µM (MRGPRX4 + RAMP1; ratio MRGPRX4:RAMP1 1:2, log [Nateglinide] (M) -6.09691, Fig S3a, read-out: IP1 accumulation): 18.6%
- activation at […] (MRGPRX4 + RAMP1; ratio MRGPRX4:RAMP1 1:2, log [Nateglinide] (M) -6.79588, Fig S3a, read-out: IP1 accumulation): 14.5%
- activation at 0.032 µM (MRGPRX4 + RAMP1; ratio MRGPRX4:RAMP1 1:2, log [Nateglinide] (M) -7.49485, Fig S3a, read-out: IP1 accumulation): 12.5%
- activation at 100 µM (MRGPRX4 + RAMP1; ratio MRGPRX4:RAMP 1:0.5, log [Nateglinide] (M) -4, Fig S3a, read-out: IP1 accumulation): 113%
- activation at 20 µM (MRGPRX4 + RAMP1; ratio MRGPRX4:RAMP 1:0.5, log [Nateglinide] (M) -4.69897, Fig S3a, read-out: IP1 accumulation): 93.7%
- activation at 4 µM (MRGPRX4 + RAMP1; ratio MRGPRX4:RAMP 1:0.5, log [Nateglinide] (M) -5.39794, Fig S3a, read-out: IP1 accumulation): 46.5%
- activation at 0.8 µM (MRGPRX4 + RAMP1; ratio MRGPRX4:RAMP 1:0.5, log [Nateglinide] (M) -6.09691, Fig S3a, read-out: IP1 accumulation): 24.4%
- activation at […] (MRGPRX4 + RAMP1; ratio MRGPRX4:RAMP 1:0.5, log [Nateglinide] (M) -6.79588, Fig S3a, read-out: IP1 accumulation): 18.5%
- activation at 0.032 µM (MRGPRX4 + RAMP1; ratio MRGPRX4:RAMP 1:0.5, log [Nateglinide] (M) -7.49485, Fig S3a, read-out: IP1 accumulation): 18.7%
- Emax (MRGPRX4 + RAMP1; DNA ratio MRGPRX4:RAMP1 1:0.25): 109%
- Emax (MRGPRX4 + RAMP1; DNA ratio MRGPRX4:RAMP1 1:0.5): 115%
- Emax (MRGPRX4 + RAMP1; DNA ratio MRGPRX4:RAMP1 1:0.75): 118%
- Emax (MRGPRX4 + RAMP1; DNA ratio MRGPRX4:RAMP1 1:1): 126%
- EC50 (MRGPRX4 + RAMP1; Figure 4a top, DNA ratio MRGPRX4:RAMP1 1:0.25, individual replicates, read-out: potency (converted)): 11.1 µM and 9.42 µM and 15.2 µM
- potency (MRGPRX4 + RAMP1; Figure 4a top, DNA ratio MRGPRX4:RAMP1 1:0.5, individual replicates): 5.042
